The numbers were not newly measured in US20240374689A1 (Longevity Biotech, Inc., priority 2010, published 2024), which cites them from elsewhere.

The conditions of this series: in humans.

In the case of GLP-1, the plasma half-life is 2 min.
